From ChEMBL document CHEMBL1201862, “PubChem BioAssay data set” (2004)
Active and inactive are the calls of the source. Cut-off read from the data, not from the text of the source: actives have a measured IC50 and inactives only a lower limit.

Molecular target: Envelope glycoprotein gp160 (Human immunodeficiency virus 1, UniProt Q6QLK5)
Experiment: cell-free HIV fusion peptide-binding blockers – biochemical, uHTS, fluorescence dequenching, […] (AID 1986)

Envelope glycoprotein gp160, sequence (Q6QLK5 whole entry, the tested form may be a part): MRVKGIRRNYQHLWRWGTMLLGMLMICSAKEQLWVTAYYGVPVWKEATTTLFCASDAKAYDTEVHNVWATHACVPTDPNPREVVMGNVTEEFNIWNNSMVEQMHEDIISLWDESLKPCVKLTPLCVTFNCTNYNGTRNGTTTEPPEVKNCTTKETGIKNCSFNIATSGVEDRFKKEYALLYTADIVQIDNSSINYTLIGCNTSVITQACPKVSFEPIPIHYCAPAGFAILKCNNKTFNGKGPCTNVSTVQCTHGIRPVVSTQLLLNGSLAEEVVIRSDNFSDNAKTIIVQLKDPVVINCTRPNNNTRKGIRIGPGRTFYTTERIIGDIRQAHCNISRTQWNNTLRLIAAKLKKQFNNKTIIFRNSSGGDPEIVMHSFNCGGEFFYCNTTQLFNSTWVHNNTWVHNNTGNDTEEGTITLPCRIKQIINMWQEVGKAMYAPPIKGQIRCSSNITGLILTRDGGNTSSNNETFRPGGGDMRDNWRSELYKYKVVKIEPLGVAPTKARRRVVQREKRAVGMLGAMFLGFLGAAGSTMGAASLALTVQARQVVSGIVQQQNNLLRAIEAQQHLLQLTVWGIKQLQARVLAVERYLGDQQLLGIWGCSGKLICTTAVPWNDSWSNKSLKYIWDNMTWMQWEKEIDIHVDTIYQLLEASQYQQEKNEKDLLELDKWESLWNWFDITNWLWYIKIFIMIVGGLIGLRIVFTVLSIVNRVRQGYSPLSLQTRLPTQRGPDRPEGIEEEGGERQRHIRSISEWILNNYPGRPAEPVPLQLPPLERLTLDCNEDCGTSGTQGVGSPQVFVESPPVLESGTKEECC

## Cc1ccc(N2C(=O)/C(=C\Nc3ccccc3-c3nnc(S)nc3O)c3ccccc3C2=O)c(C)c1
  IC50: 23.9 µM (active)
